What is called MIC is the lowest concentration found to suppress growth. A higher MIC goes with weaker potency.

Consider 1 molecule from patent US20260217761A1, “ANTIMICROBIAL PEPTIDE RICH IN TRYPTOPHAN AND HAVING SELF-ASSEMBLY PROPERTIES, AND USE THEREOF” (NANOQURE BIOTECH (SHENZHEN) CO., LTD., priority 2022, published 2026).

In assay [1] the test system is K. pneumoniae 106. The class given is cell-based, Klebsiella Pneumoniae. As for the experimental part: (§1) • A. The polypeptide Z4 composed entirely of dextrorotatory amino acids is called the dextrorotatory isomer of polypeptide Z4. The polypeptide Z4-D was prepared into a certain stock solution for use. 0.01% acetic acid (containing 0.2% BSA) was used as the diluent, and a series of gradient antimicrobial peptide solutions were prepared in sequence by a two-fold dilution method. • B. 100 μL of the above-mentioned antimicrobial peptide stock solution was taken and placed in a 96-well cell culture plate. Then, an equal volume of the test bacterial solution (approximately […]) was added to each well. A positive control (containing the bacterial solution but no antimicrobial peptide) and a negative control (containing neither the bacterial solution nor the peptide) were included, respectively. The test bacterial species include Pseudomonas aeruginosa (Pseudomonas aeruginosa PL1, Pseudomonas aeruginosa SP1), Staphylococcus aureus (Staphylococcus aureus 544, Staphylococcus aureus 103), Escherichia coli (Escherichia coli 729, Escherichia coli 112), Klebsiella Pneumoniae (Klebsiella Pneumoniae 106, Klebsiella Pneumoniae 727), Streptococcus pneumonia 383, and Acinetobacter baumannii (Acinetobacter baumannii 946, Acinetobacter baumannii 780). • C. […] The minimum inhibitory concentration is determined as the condition where no turbidity is observed at the bottom of the well with naked eyes.

In assay [2] the test system is K. pneumoniae 727. Format: cell-based, Klebsiella Pneumoniae. The method, then: as §1
The test system of assay [3] is E. coli 112. The class given is cell-based, Escherichia coli. As for the experimental part:
as §1

Assay [4] concerns E. coli 729. The class given is cell-based, Escherichia coli. As for the experimental part: as §1
In assay [5] the test system is various bacteria. Description: MIC against various bacteria (broad-spectrum antimicrobial activity). The class given is cell-based. As for the experimental part: • A. The antimicrobial peptide was prepared into a certain stock solution for use. 0.01% acetic acid (containing 0.2% BSA) was used as the diluent, and a series of gradient antimicrobial peptide solutions were prepared sequentially by a two-fold dilution method. • B. 100 μL of the above-mentioned antimicrobial peptide stock solution was taken and placed in a 96-well cell culture plate. Then, an equal volume of the test bacterial solution (approximately 10^5 cells/mL) was added to each well. A positive control (containing the bacterial solution but no antimicrobial peptide) and a negative control (containing neither bacterial solution nor the peptide) were included, respectively. The test bacterial species include Pseudomonas aeruginosa (Pseudomonas aeruginosa PL1, Pseudomonas aeruginosa SP1), Staphylococcus aureus (Staphylococcus aureus 544, Staphylococcus aureus 103), Escherichia coli (Escherichia coli 729, Escherichia coli 112), Klebsiella Pneumoniae (Klebsiella Pneumoniae 106, Klebsiella Pneumoniae 727), Streptococcus pneumonia 383, Acinetobacter baumannii (Acinetobacter baumannii 946, Acinetobacter baumannii 780) (FIG. 1), or Pseudomonas aeruginosa (Pseudomonas aeruginosa PAO1), Staphylococcus aureus (Staphylococcus aureus SP1), and a mixed solution of the above two bacteria (FIG. 2). • C. The culture plate was placed in a constant temperature incubator at 37° C. for 20 h. The minimum inhibitory concentration is determined as the condition where no turbidity is observed at the bottom of the well with naked eyes.
• A. The polypeptide Z4 composed entirely of dextrorotatory amino acids is called the dextrorotatory isomer of polypeptide Z4. The polypeptide Z4-D was prepared into a certain stock solution for use. […] The minimum inhibitory concentration is determined as the condition where no turbidity is observed at the bottom of the well with naked eyes.

In assay [6] the test system is P. aeruginosa PL1. Format: cell-based, Pseudomonas aeruginosa. The method, then:
as §1

The subject of assay [7] is P. aeruginosa SP1. The class given is cell-based, Pseudomonas aeruginosa. The method, then:
as §1

The subject of assay [8] is mixed bacterial solution of P. aeruginosa PAO1 and S. aureus SP1. The class given is cell-based. The settings on record: within 0-120 minutes of proteinase K treatment, remained unchanged. The method, then:
After ultrasonic treatment of polypeptide Z4 and polypeptide Z4-D for 30 min, they were placed at room temperature for 2 h to promote their self-assembly. Subsequently, proteinase K with a final concentration of 0.2 g/mL was mixed with the polypeptide solution (final concentration of 640 μM) and incubated at 37° C. for 0, 30, 60, 90 or 120 min respectively. Then, according to the scheme described in Example 2, the MICs of the polypeptides against the mixed bacterial solution of P. aeruginosa PAO1 and S. aureus SP1 under different treatment conditions were determined.

Assay [9] concerns A. baumannii 780. Format: cell-based, Acinetobacter baumannii. The method, then: as §1
The test system of assay [10] is A. baumannii 946. The class given is cell-based, Acinetobacter baumannii. As for the experimental part: as §1
Assay [11] has as its system S. aureus 544. Format: cell-based, Staphylococcus aureus. As for the experimental part:
as §1

For assay [12], the system named is S. aureus 103. Format: cell-based, Staphylococcus aureus. As for the experimental part:
as §1

The test system of assay [13] is S. pneumoniae 383. The class given is cell-based, Streptococcus pneumonia. The method, then:
as §1

Structures are written as SMILES. Converted amounts (≈) assume the structure as drawn. Non-standard residues stand in square brackets, D forms with d. Residues, ends and D or L forms follow the SMILES beside them.

With `NCCCC[C@@H](NC(=O)[C@@H](Cc1c[nH]c2ccccc12)NC(=O)[C@H](N)Cc1c[nH]c2ccccc12)C(=O)N[C@H](CCCCN)C(=O)N[C@H](Cc1c[nH]c2ccccc12)C(=O)N[C@H](CCCCN)C(=O)N[C@H](CCCCN)C(=O)N[C@H](Cc1c[nH]c2ccccc12)C(=O)N[C@H](Cc1c[nH]c2ccccc12)C(N)=O` [Z4-D] (H-[dW][dW][dK][dK][dW][dK][dK][dW][dW]-NH2; N-terminus assumed), the minimal inhibitory concentration (MIC) is 128 µM (≈ 187 µg/mL) in assay [1]; 32 µM (≈ 46.7 µg/mL) in [2]; 4 µM (≈ 5.84 µg/mL) in assay [3]; 4 µM (≈ 5.84 µg/mL) in [4]; 16 µM (≈ 23.4 µg/mL) in assay [6]; 4 µM (≈ 5.84 µg/mL) in assay [7]. The MIC came out at 16 µM (≈ 23.4 µg/mL) in [9]; 4 µM (≈ 5.84 µg/mL) in [10]; 4 µM (≈ 5.84 µg/mL) in [11]; 4 µM (≈ 5.84 µg/mL) in assay [12]; 4 µM (≈ 5.84 µg/mL) in assay [13]. Besides, in assay [5], the broad-spectrum antimicrobial activity result was “good broad-spectrum antimicrobial activity”. The same molecule returned an MIC after proteinase K treatment in assay [8] of 4 µM (≈ 5.84 µg/mL).
